Measurements from US8450354B2, “Substituted imidazo[1,2-b]pyridazine derivatives, pharmaceutical compositions, and methods of use as β-secretase inhibitors” (High Point Pharmaceuticals, LLC, priority 2010, dated 2013).

Columns and labels:
[1] = biological target: T1, BACE-1 enzyme (Homo sapiens, UniProt P56817); experiment: BACE Fluorescence Resonance Energy Transfer (FRET) Assay; assay type: biochemical; conditions: pH 4-4.5, 30 min pre-incubation, about 1.5 hours reaction, asterisk = mean
T1 construct: purchased R & D Systems 931AS
Experimental: BACE Fluorescence Resonance Energy Transfer (FRET) Assay
In the following assay, the proteolytic activity of BACE is measured by observing cleavage of a fluorescent group from a peptide substrate containing a rhodamine fluorescent donor and a quenching acceptor.
The inhibitory activity of compounds of Formula (I) may be compared to a statine derived control inhibitor STA200 (MP Biomedical Cat. #STA-200). The cleavage reaction occurs when a BACE-1 substrate (Invitrogen, Cat. #P2986) was added to a reaction mixture containing BACE-1 enzyme (R & D Systems, Cat. #931AS) and allowed to proceed for about 1.5 hours. Fluorescence, used as a marker of BACE activity, is monitored using 540 nm excitation and 585 nm emission wavelengths (Envision, Perkin Elmer).
A typical assay reaction contains BACE-1 enzyme-in assay buffer (50 mM sodium acetate, pH 4-4.5, 0.01% CHAPS (3-[(3-Cholamidopropyl)dimethylammonio]-1-propanesulfonate), 0.0125% TritonX-100, 0.006% EDTA) which is pre-incubated for 30 minutes with test compound in 7.5% DMSO. The reaction is initiated with the addition of BACE-1 substrate in assay buffer and allowed to proceed for about 1.5 hours at room temperature. Assays are conducted in black 384-well microtiter plates and scanned at room temperature using 540 nm excitation and 585 nm emission wavelengths.
In some instances, the percent inhibition at a given concentration is reported instead of the IC50.

[2] = Aβ Cell Based Assay (Aβ1-40 secretion, ELISA); set-up: species or system human; conditions: Homo sapiens, HEK293; HEK-APPwt cells, 6 hours incubation, reduction of Aβ1-40 secretion; asterisk = mean
Experimental: Aβ Cell Based Assay Procedure
In the following assay, the proteolytic activity of BACE in cells exposed to varying concentrations of a compound of interest is measured by observing the amount of Aβ1-40 secreted from HEK293 cells (Human Embryonic Kidney epithelial cell line) stably expressing wildtype human APP695 protein (HEK-APPwt cells).
HEK-APPwt cells were grown in high glucose DMEM (Dulbecco's Modified Eagles Medium SIGMA Cat. #D5796) supplemented with 25 mM HEPES (4-(2-hydroxyethyl)-1-piperazineethanesulfonic acid) (pH 7.4) (Invitrogen Cat. #15630-114), 0.1 mM NEAA (Non-essential Amino Acids) (BioWhittaker Cat. #13-114E), 10% fetal bovine serum (SIGMA Cat. #F4135) and 250 μg/mL hygromycin (Invitrogen Cat. #10687-010) in T-225 flasks at 37° C. with 5% CO2 and humidity control.
Test compounds were initially prepared in DMSO and diluted with DMEM media containing 2% FBS (Fetal bovine serum). Ten standard compound solutions were prepared having a range of concentrations. The standard compound solutions were used to determine the EC50 of the test compound. The range of concentrations chosen may depend on the compound's predicted potency.
To prepare cells for the assay, a flask containing HEK-APPwt cells were trypsinized briefly (1 mL trypsin), and once the cells detached, 4 mL of 10% FBS-DMEM was added to the flask. The detached cells were centrifuged at 900 rpm for 5 min to form a pellet.
The HEK-APPwt cell pellet was re-suspended with 10 mL DMEM media containing 2% FBS. 80 μL of the cell suspension was added to each well of a 96-well cell culture plate to give 100×10^4 cells/ml. 10 μL of a standard compound solution was added to each well of the 96-well cell culture plate followed by 10 μL of Alamar blue solution. The cells were incubated at 37° C. in a 5% CO2 incubator for 6 hours.
At the end of the incubation, the plates were removed from incubator, and the supernatant was collected. Aβ1-40 concentration in the medium was measured by using a commercial Aβ1-X ELISA kit (IBL, Japan Cat. #27729). Briefly, the ELISA plates were coated with an anti-human Aβ (N)(82E1) mouse IgG monoclonal antibody. A horseradish peroxidase conjugated anti-human Aβ11-28 mouse IgG monoclonal antibody was used for detection. The cell culture supernatant was diluted with EIA buffer+protease inhibitors (kit buffer containing protease inhibitors (1 mL PI/30 mL buffer)). A 100 μL aliquot of the diluted supernatant was added to each well of the ELISA plate and incubated for 6 hrs at 4° C. The ELISA plate was washed 8 times with phosphate buffered saline (PBS) containing 0.05% TWEEN 20.
A 100 μL of detection antibody was then added and incubated for 1 hour at 4° C. The plate was washed 8 times with PBS buffer containing 0.05% Tween 20 followed by addition of 100 μL of the chromogen tetramethylbenzidine (TMB). The plate was incubated in the dark at room temperature for about 30 min and a stop solution (1N H2SO4) was added.
The intensity of the color developed was measured at 450 nm. The optical density at 450 nm (OD450) is proportional to the concentration of human Aβ1-40 secreted by the cell. As a reference, N—[N-(3,5-difluorophenacetyl-L-alanyl)]—S-phenylglycine t-butyl ester (DAPT, a γ-secretase inhibitor) was used to indicate 100% inhibition of […]. Thus, the assay measures the ability of a compound of interest to reduce Aβ1-40 secretion. Compound potency is reported in Table 3 as the EC50 by calculating the percent inhibition at all concentration levels and the data were fit with non-linear curve fitting algorithm using GraphPad Prism.

T1 sequence (P56817 46-457 limits assumed): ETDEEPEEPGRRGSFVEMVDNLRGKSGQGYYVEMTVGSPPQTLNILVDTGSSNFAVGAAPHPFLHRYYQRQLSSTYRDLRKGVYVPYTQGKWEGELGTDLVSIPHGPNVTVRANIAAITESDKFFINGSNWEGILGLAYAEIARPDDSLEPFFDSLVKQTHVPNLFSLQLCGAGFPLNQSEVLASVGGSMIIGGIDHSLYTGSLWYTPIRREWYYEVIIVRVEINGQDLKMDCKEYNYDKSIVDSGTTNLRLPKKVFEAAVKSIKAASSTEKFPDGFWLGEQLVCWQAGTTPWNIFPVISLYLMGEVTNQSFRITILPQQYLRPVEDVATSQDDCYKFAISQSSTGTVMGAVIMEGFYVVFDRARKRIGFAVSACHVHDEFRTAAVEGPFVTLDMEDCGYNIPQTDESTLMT

`O=C(Nc1nc2cc(-c3cccc(Cl)c3)ccc2[nH]1)c1cn2nc(OCCO)ccc2n1` [Example 144, 6-(2-hydroxy-ethoxy)-imidazo[1,2-b]pyridazine-2-carboxylic acid [5-(3-chloro-phenyl)-1H-benzoimidazol-2-yl]-amide] showed an IC50 [1] of 0.128 µM and an EC50 [2] of 0.94 µM.
For `CC(C)[C@@H](O)COc1ccc2nc(C(=O)Nc3nc4cc(-c5cc(F)cc(Cl)c5)ccc4[nH]3)cn2n1` [Example 107], the IC50 [1] was 0.215 µM and the EC50 [2] was 0.79 µM.
`C[C@@H](O)COc1ccc2nc(C(=O)Nc3nc4cc(-c5ccc(C(F)(F)F)c(Cl)c5)ccc4[nH]3)cn2n1` [Example 122, 6-((R)-2-hydroxy-propoxy)-imidazol[1,2-b]pyridazine-2-carboxylic acid [5-(3-chloro-4-trifluoromethyl-phenyl)-1H-benzoimidazol-2-yl]-amide] showed an IC50 [1] of 0.371 µM and an EC50 [2] of 0.1 µM.
In the case of `O=C(Nc1nc2cc(-c3cccc(C(F)(F)F)c3)ccc2[nH]1)c1cn2nc(OCCN3CCOCC3)ccc2n1` [Example 27, 6-(2-Morpholin-4-yl-ethoxy)-imidazol[1,2-b]pyridazine-2-carboxylic acid [5-(3-trifluoromethyl-phenyl)-1H-benzoimidazol-2-yl]-amide], the IC50 [1] was 0.262 µM and the EC50 [2] was 0.58 µM.
Work on `C[C@@H](O)[C@@H](C)Oc1ccc2nc(C(=O)Nc3nc4cc(-c5cccc(C(F)(F)F)c5)ccc4[nH]3)cn2n1` [Example 100] yielded an IC50 [1] of 0.26 µM and an EC50 [2] of 0.7 µM.
In the case of `CN1CCN(CCOc2ccc3nc(C(=O)Nc4nc5cc(-c6cccc(C(F)(F)F)c6)ccc5[nH]4)cn3n2)CC1` [Example 41], the IC50 [1] was 0.232 µM and the EC50 [2] was 2.62 µM.
`CC1(C)CCC(c2ccc3[nH]c(NC(=O)c4cn5nc(N6CC[C@H](O)C6)ccc5n4)nc3c2)CC1` [Example 86] showed an IC50 [1] of 0.123 µM and an EC50 [2] of 2.46 µM.
Work on `COc1ccc2nc(C(=O)Nc3nc4cc(-c5cc(F)cc(Cl)c5)ccc4[nH]3)cn2n1` [Example 7] yielded an IC50 [1] of 0.225 µM and an EC50 [2] of 0.7 µM.
Work on `O=C(Nc1nc2cc(-c3ccc(F)c(Cl)c3)ccc2[nH]1)c1cn2nc(OCCO)ccc2n1` [Example 131, 6-(2-Hydroxy-ethoxy)-imidazo[1,2-b]pyridazine-2-carboxylic acid [5-(3-chloro-4-fluoro-phenyl)-1H-benzoimidazol-2-yl]-amide] yielded an IC50 [1] of 0.245 µM and an EC50 [2] of 0.15 µM.
`C[C@H](O)[C@H](C)Oc1ccc2nc(C(=O)Nc3nc4cc(-c5cccc(C(F)(F)F)c5)ccc4[nH]3)cn2n1` [Example 101] gave an IC50 [1] of 0.136 µM and an EC50 [2] of 1.17 µM.
`CN1CCN(CCOc2ccc3nc(C(=O)Nc4nc5cc(-c6cccc(OC(F)(F)F)c6)ccc5[nH]4)cn3n2)CC1` [Example 35] gave an IC50 [1] of 0.315 µM and an EC50 [2] of 3.13 µM.
`CC[C@@H](O)COc1ccc2nc(C(=O)Nc3nc4cc(-c5cc(F)cc(Cl)c5)ccc4[nH]3)cn2n1` [Example 105] gave an IC50 [1] of 0.064 µM and an EC50 [2] of 1.27 µM.
For `CC(C)[C@H](O)COc1ccc2nc(C(=O)Nc3nc4cc(-c5cc(F)cc(Cl)c5)ccc4[nH]3)cn2n1` [Example 108], the IC50 [1] was 0.357 µM and the EC50 [2] was 0.89 µM.
Work on `O=C(Nc1nc2cc(-c3ccc(Cl)c(C(F)(F)F)c3)ccc2[nH]1)c1cn2nc(OCCN3CCOCC3)ccc2n1` [Example 64] yielded an IC50 [1] of 0.22 µM and an EC50 [2] of 0.97 µM.
In the case of `CCCC[C@H](O)COc1ccc2nc(C(=O)Nc3nc4cc(-c5cc(F)cc(Cl)c5)ccc4[nH]3)cn2n1` [Example 127], the IC50 [1] was 0.163 µM and the EC50 [2] was 0.71 µM.
In the case of `C[C@H](O)CCOc1ccc2nc(C(=O)Nc3nc4cc(-c5cc(F)cc(Cl)c5)ccc4[nH]3)cn2n1` [Example 119], the IC50 [1] was 0.298 µM and the EC50 [2] was 0.77 µM.
For `O=C(Nc1nc2cc(-c3cc(F)cc(Cl)c3)ccc2[nH]1)c1cn2nc(OC[C@@H]3CCCO3)ccc2n1` [Example 147, 6-[(S)-1-(Tetrahydro-furan-2-yl)methoxy]-imidazol[1,2-b]pyridazine-2-carboxylic acid [5-(3-chloro-5-fluoro-phenyl)-1H-benzoimidazol-2-yl]-amide], the IC50 [1] was 0.207 µM and the EC50 [2] was 0.27 µM.
Work on `CC1(COc2ccc3nc(C(=O)Nc4nc5cc(-c6cc(F)cc(Cl)c6)ccc5[nH]4)cn3n2)COC1` [Example 98] yielded an IC50 [1] of 0.248 µM and an EC50 [2] of 0.44 µM.
`CN(C)CCN(C)CCOc1ccc2nc(C(=O)Nc3nc4cc(-c5cc(F)cc(Cl)c5)ccc4[nH]3)cn2n1` [Example 49] showed an IC50 [1] of 0.21 µM and an EC50 [2] of 1.8 µM.
Compound `C[C@H](O)[C@@H](C)Oc1ccc2nc(C(=O)Nc3nc4cc(-c5cccc(C(F)(F)F)c5)ccc4[nH]3)cn2n1` [Example 99] has an IC50 [1] of 0.189 µM and an EC50 [2] of 0.78 µM.
Compound `CN(C)C(=O)COc1ccc2nc(C(=O)Nc3nc4cc(-c5cccc(C(F)(F)F)c5)ccc4[nH]3)cn2n1` [Example 141] has an IC50 [1] of 0.172 µM and an EC50 [2] of 1.3 µM.
For `C[C@H](O)COc1ccc2nc(C(=O)Nc3nc4cc(-c5cccc(OC(F)(F)F)c5)ccc4[nH]3)cn2n1` [Example 145, 6-((S)-2-hydroxy-propoxy)-imidazo[1,2-b]pyridazine-2-carboxylic acid [5-(3-trifluoromethoxy-phenyl)-1H-benzoimidazol-2-yl]-amide], the IC50 [1] was 0.15 µM and the EC50 [2] was 1.09 µM.
Compound `CC1(C)CCC(c2ccc3[nH]c(NC(=O)c4cn5nc(N6CCCC(O)C6)ccc5n4)nc3c2)CC1` (centres unmarked) [Example 84] has an IC50 [1] of 0.191 µM and an EC50 [2] of 1.71 µM.
`C[C@H](O)COc1ccc2nc(C(=O)Nc3nc4cc(-c5ccc(C(F)(F)F)c(Cl)c5)ccc4[nH]3)cn2n1` [Example 123, 6-((S)-2-Hydroxy-propoxy)-imidazo[1,2-b]pyridazine-2-carboxylic acid [5-(3-chloro-4-trifluoromethyl-phenyl)-1H-benzoimidazol-2-yl]-amide] gave an IC50 [1] of 0.372 µM and an EC50 [2] of 0.12 µM.
With `O=C(Nc1nc2cc(-c3cccc(OC(F)(F)F)c3)ccc2[nH]1)c1cn2nc(OCCN3CCCCC3)ccc2n1` [Example 47] the IC50 [1] was 0.24 µM and the EC50 [2] was 1.96 µM.
Work on `COC[C@H](COc1ccc2nc(C(=O)Nc3nc4cc(-c5cccc(C(F)(F)F)c5)ccc4[nH]3)cn2n1)OC` [Example 135] yielded an IC50 [1] of 0.117 µM and an EC50 [2] of 0.45 µM.
Compound `O=C(Nc1nc2cc(-c3cccc(C(F)(F)F)c3)ccc2[nH]1)c1cn2nc(OCCN3CCCC3=O)ccc2n1` [Example 25] has an IC50 [1] of 0.316 µM and an EC50 [2] of 1.35 µM.
`O=C(Nc1nc2cc(-c3cccc(C(F)(F)F)c3)ccc2[nH]1)c1cn2nc(OCCN3CCCCC3)ccc2n1` [Example 46] showed an IC50 [1] of 0.248 µM and an EC50 [2] of 3.81 µM.
